{
  "source": "patent US9108978B2",
  "about": "“Antimicrobial compounds” (ADELAIDE RESEARCH & INNOVATION PTY LTD, priority 2011, dated 2015)",
  "key": {"[1]": {"biological_target": "biotin protein ligase from S. aureus (SaBPL) (Staphylococcus aureus, UniProt A0A3A5LBF0)", "sequence (A0A3A5LBF0 1-323)": "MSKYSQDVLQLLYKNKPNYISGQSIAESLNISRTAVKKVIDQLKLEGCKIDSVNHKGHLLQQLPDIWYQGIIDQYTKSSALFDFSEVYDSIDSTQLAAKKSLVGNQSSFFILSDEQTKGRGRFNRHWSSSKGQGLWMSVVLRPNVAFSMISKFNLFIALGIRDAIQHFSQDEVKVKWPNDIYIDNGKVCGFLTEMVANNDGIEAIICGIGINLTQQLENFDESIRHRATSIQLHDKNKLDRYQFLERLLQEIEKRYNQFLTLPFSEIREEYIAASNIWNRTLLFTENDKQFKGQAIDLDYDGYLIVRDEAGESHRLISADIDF", "assay": "BPL enzyme inhibition assay (3H-biotin incorporation), SaBPL", "format": "biochemical", "conditions": "for IC50: 4 nM BPL, 20 minutes at 37° C.; for selectivity towards SaBPL over HsBPL (human BPL): Hs vs SaBPL", "experimental": "(§1) Quantitation of BPL catalysed ^3H-biotin incorporation into the biotin domain substrate was performed as previously described by Polyak et al, J. Biol. Chem (1999) 274(46) 32847-54. Briefly, the reaction mixture contained: 50 mM Tris HCl pH 8.0, 3 mM ATP, 4.5 μM biotin, 0.5 μM ^3H-biotin, 5.5 mM MgCl2, 100 mM KCl, 0.1 mg/mL BSA and 10 μM biotin domain of S. aureus pyruvate carboxylase. The reaction was initiated by the addition of BPL to a final concentration of 4 nM. After 20 minutes at 37° C., 4 μL aliquots of the reaction were spotted onto Whatman paper pre-treated with biotin and trichloroacetic acid. The filters were washed twice with 10% v/v ice-cold trichloroacetic acid and once with ethanol before air-drying. Quantitation of protein-bound radiolabelled biotin was performed by liquid scintillation. One unit of enzyme activity was defined by the amount of BPL required to incorporate 1 nmol of biotin per minute. The IC50 value of each compound was determined from a dose-response curve by varying the concentration of the inhibitor under the same enzyme concentration. The data was analysed with GraphPad Prism using a non-linear fit of log10 (inhibitor) vs. normalized response. The Ki, the absolute inhibition constant for a compound, was determined using Eq 1:\nThe mode of inhibition was investigated by varying the concentrations of inhibitor alongside varying the concentrations of ^3H-biotin. The data was plotted as double reciprocal plots and assessed using Lineweaver-Burk analysis.\nTriazoles 6.02-6.10 were assayed for inhibitory activity against the biotin protein ligases from S. aureus (SaBPL), Escherichia coli (EcBPL) and Homo sapiens (HsBPL) (Table 3). The inhibitory activity of the compounds was determined by measuring BPL activity with varying concentrations of inhibitors. From the dose-response curves IC50 values were determined and Ki values calculated."}, "[2]": {"biological_target": "biotin protein ligase from Escherichia coli (EcBPL) (Escherichia coli (strain K12), UniProt P06709)", "sequence (P06709 whole entry, looked up)": "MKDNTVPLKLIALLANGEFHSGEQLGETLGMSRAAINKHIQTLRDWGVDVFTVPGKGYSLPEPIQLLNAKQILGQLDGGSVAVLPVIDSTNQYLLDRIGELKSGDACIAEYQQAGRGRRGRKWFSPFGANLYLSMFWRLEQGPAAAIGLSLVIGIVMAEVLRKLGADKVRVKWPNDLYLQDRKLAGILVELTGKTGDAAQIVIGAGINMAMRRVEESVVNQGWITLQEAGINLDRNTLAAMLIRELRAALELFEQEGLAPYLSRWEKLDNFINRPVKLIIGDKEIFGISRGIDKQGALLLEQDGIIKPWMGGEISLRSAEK", "assay": "BPL enzyme inhibition assay (3H-biotin incorporation), EcBPL", "format": "biochemical", "experimental": "as §1\n(§2) The inhibitory activity of the compounds was determined by measuring BPL activity with varying concentrations of inhibitors. From the dose-response curves IC50 values were determined and Ki values calculated."}, "[3]": {"biological_target": "biotin protein ligase from Homo sapiens (HsBPL) (Homo sapiens (Human), UniProt P50747)", "sequence (P50747 whole entry)": "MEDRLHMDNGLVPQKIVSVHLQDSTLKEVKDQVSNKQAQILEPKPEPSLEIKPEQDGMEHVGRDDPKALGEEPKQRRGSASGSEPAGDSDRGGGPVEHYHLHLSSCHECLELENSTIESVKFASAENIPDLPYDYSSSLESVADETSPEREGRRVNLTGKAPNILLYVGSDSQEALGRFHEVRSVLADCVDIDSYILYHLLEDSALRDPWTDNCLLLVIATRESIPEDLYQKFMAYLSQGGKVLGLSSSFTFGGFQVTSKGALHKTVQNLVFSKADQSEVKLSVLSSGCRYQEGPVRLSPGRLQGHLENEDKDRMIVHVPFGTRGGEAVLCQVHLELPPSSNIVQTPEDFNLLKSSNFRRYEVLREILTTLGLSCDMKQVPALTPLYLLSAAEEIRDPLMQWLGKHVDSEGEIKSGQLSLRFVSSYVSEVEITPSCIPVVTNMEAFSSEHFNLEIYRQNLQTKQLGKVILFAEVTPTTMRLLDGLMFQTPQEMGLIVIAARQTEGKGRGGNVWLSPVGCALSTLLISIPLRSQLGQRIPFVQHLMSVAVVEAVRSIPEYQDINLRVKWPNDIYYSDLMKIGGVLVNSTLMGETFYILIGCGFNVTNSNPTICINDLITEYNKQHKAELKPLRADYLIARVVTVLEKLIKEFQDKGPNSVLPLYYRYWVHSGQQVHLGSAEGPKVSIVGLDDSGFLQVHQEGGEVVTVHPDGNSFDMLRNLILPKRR", "assay": "BPL enzyme inhibition assay (3H-biotin incorporation), HsBPL", "format": "biochemical", "experimental": "as §1, §2"}, "S. aureus ATCC 49775": {"tested_on": "S. aureus ATCC 49775", "assay": "Antimicrobial microbroth dilution assay, S. aureus", "format": "cell-based, Staphylococcus aureus", "conditions": "at 8 μg/ml", "experimental": "The biotin-triazoles were assessed for their antimicrobial activity using a microbroth dilution assay as recommended by the CLSI (Clinical and Laboratory Standards Institute, Document […]-A8, 2009, Wayne, Pa.) with cation-adjusted Mueller-Hinton broth (Trek Diagnostics Systems, U.K.). Compounds were dissolved using DMSO. Serial two-fold dilutions of each compound were made using DMSO as the diluent. Trays were inoculated with 5×10^4 CFU of each strain in a volume of 100 μL (final concentration of DMSO was 5% (v/v)), and incubated at 35° C. for 16-20 hours when the optical density of the growth cultures was measured by spectroscopy at wavelength 620 nm. A library of Gram negative and Gram positive microbes was employed. […] Inhibition of the growth of S. aureus ATCC 49775 was measured using a microbroth dilution assay with varying concentrations of BPL inhibitors. […] The antibiotic erythromycin was also included (X)."}, "Enterococcus faecalis": {"tested_on": "Enterococcus faecalis", "assay": "Antimicrobial microbroth dilution assay, E. faecalis", "format": "cell-based", "experimental": "(§3) The biotin-triazoles were assessed for their antimicrobial activity using a microbroth dilution assay as recommended by the CLSI (Clinical and Laboratory Standards Institute, Document […]-A8, 2009, Wayne, Pa.) with cation-adjusted Mueller-Hinton broth (Trek Diagnostics Systems, U.K.). Compounds were dissolved using DMSO. Serial two-fold dilutions of each compound were made using DMSO as the diluent. Trays were inoculated with 5×10^4 CFU of each strain in a volume of 100 μL (final concentration of DMSO was 5% (v/v)), and incubated at 35° C. for 16-20 hours when the optical density of the growth cultures was measured by spectroscopy at wavelength 620 nm. A library of Gram negative and Gram positive microbes was employed."}, "Enterococcus faecium": {"tested_on": "Enterococcus faecium", "assay": "Antimicrobial microbroth dilution assay, E. faecium", "format": "cell-based", "experimental": "as §3"}, "M. tuberculosis BPL": {"biological_target": "M. tuberculosis BPL (Mycobacterium tuberculosis (strain ATCC 25618 / H37Rv), UniProt I6YFP0)", "sequence (I6YFP0 whole entry, looked up)": "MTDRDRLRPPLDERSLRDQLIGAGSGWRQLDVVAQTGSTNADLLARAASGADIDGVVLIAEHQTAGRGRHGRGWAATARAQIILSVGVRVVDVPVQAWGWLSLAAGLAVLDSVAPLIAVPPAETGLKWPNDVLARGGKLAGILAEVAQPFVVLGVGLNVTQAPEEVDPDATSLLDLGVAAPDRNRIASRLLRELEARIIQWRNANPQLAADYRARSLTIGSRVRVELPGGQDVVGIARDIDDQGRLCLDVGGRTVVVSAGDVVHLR", "assay": "BPL inhibition, M. tuberculosis BPL", "format": "biochemical, Mycobacteria tuberculosis"}, "[4]": {"conditions": "calculated from IC50, [biotin]=5 μM, Km 1 μM, read-out: Ki SaBPL"}, "[5]": {"conditions": "read-out: Ki EcBPL (E. coli BPL)"}},
  "note": "Where two headings read alike, the source gives them in different places.",
  "data": [
    {"compound": "Cc1ccc2oc(=O)n(CCCCOP(=O)(O)OCCCCC[C@@H]3SC[C@@H]4NC(=O)N[C@@H]43)c2c1", "values": [
      {"measurement": "IC50", "setting": "[1]", "result": "> 50", "unit": "µM"},
      {"measurement": "Ki", "setting": "[1]; [4]", "result": "> 10", "unit": "µM"}
    ]},
    {"compound": "CC1(C)O[C@@H]2[C@H](O1)[C@@H](n1cnc3c(N)ncnc31)O[C@H]2Cn1cc(CCCCC[C@@H]2SC[C@@H]3NC(=O)N[C@@H]32)nn1", "note": "[3.25]", "values": [
      {"measurement": "fold less potent against SaBPL compared to biotinol-5′-AMP 2.02", "setting": "[1]", "result": 60, "unit": "fold"},
      {"measurement": "IC50", "setting": "[1]", "result": "11.6 ± 2.2", "unit": "µM"},
      {"measurement": "selectivity towards SaBPL over HsBPL (human BPL)", "setting": "[1]", "result": "> 16", "unit": "fold"},
      {"measurement": "Ki", "setting": "[1]; read-out: Ki SaBPL", "result": "1.83 ± 0.33", "unit": "µM"},
      {"measurement": "Ki", "setting": "[2]", "result": "> 90", "unit": "µM"},
      {"measurement": "Ki", "setting": "[2]; [5]", "result": "> 30", "unit": "µM"},
      {"measurement": "Ki", "setting": "[3]", "result": "> 90", "unit": "µM"}
    ]},
    {"compound": "Nc1ncnc2c1ncn2CCCCn1cc(CCCCC[C@@H]2SC[C@@H]3NC(=O)N[C@@H]32)nn1", "note": "[4.01]", "values": [
      {"measurement": "fold less potent against SaBPL compared to biotinol-5′-AMP 2.02", "setting": "[1]", "result": 22, "unit": "fold"},
      {"measurement": "inhibition against SaBPL", "setting": "[1]", "result": "micromolar inhibition"},
      {"measurement": "selectivity towards SaBPL over EcBPL (E. coli BPL)", "setting": "[1]", "result": "at least 400 fold"},
      {"measurement": "IC50", "setting": "[1]", "result": "4 ± 0.9", "unit": "µM"},
      {"measurement": "selectivity towards SaBPL over HsBPL (human BPL)", "setting": "[1]", "result": "at least 400 fold"},
      {"measurement": "Ki", "setting": "[1]; [4]", "result": "0.66 ± 0.15", "unit": "µM"},
      {"measurement": "IC50", "setting": "[2]", "result": "> 200", "unit": "µM"},
      {"measurement": "Ki", "setting": "[2]", "result": "> 90", "unit": "µM"},
      {"measurement": "Ki", "setting": "[2]; [5]", "result": "> 30", "unit": "µM"},
      {"measurement": "Ki", "setting": "[3]", "result": "> 90", "unit": "µM"},
      {"measurement": "IC50", "setting": "[3]; in b132 the quantity is not named", "result": "> 200", "unit": "µM"}
    ]},
    {"compound": "CC1(C)O[C@@H]2[C@H](O1)[C@@H](n1cnc3c(N)ncnc31)O[C@H]2Cn1cc(CCCC[C@@H]2SC[C@@H]3NC(=O)N[C@@H]32)nn1", "note": "[4.09]", "values": [
      {"measurement": "Ki", "setting": "[1]", "result": "7.53 ± 1.9", "unit": "µM"},
      {"measurement": "fold less potent against SaBPL compared to triazole 3.25", "setting": "[1]", "result": 4, "unit": "fold"},
      {"measurement": "inhibition against SaBPL", "setting": "[1]", "result": "micromolar inhibition"},
      {"measurement": "Ki", "setting": "[2]", "result": "> 10", "unit": "µM"},
      {"measurement": "Ki", "setting": "[3]", "result": "> 10", "unit": "µM"}
    ]},
    {"compound": "Nc1ncnc2c1ncn2CCCCCn1cc(CCCC[C@@H]2SC[C@@H]3NC(=O)N[C@@H]32)nn1", "note": "[4.13]", "values": [
      {"measurement": "Ki", "setting": "[1]", "result": "2.86 ± 0.75", "unit": "µM"},
      {"measurement": "fold less potent against SaBPL compared to 4.01", "setting": "[1]", "result": 4, "unit": "fold"},
      {"measurement": "inhibition against SaBPL", "setting": "[1]", "result": "micromolar inhibition"},
      {"measurement": "Ki", "setting": "[2]", "result": "> 10", "unit": "µM"},
      {"measurement": "Ki", "setting": "[3]", "result": "> 10", "unit": "µM"}
    ]},
    {"compound": "O=C1N[C@H]2[C@H](CS[C@H]2CCCCCc2cn(CCCCOc3ccc4ccccc4c3)nn2)N1", "note": "[6.07]", "values": [
      {"measurement": "fold less potent against SaBPL compared to 4.01", "setting": "[1]", "result": 7, "unit": "fold"},
      {"measurement": "IC50", "setting": "[1]", "result": "7 ± 1", "unit": "µM"},
      {"measurement": "Ki", "setting": "[1]; [4]", "result": "1.17 ± 0.17", "unit": "µM"},
      {"measurement": "Ki", "setting": "[2]; [5]", "result": "> 30", "unit": "µM"},
      {"measurement": "Ki", "setting": "[3]", "result": "> 30", "unit": "µM"}
    ]},
    {"compound": "Cc1ccc2oc(=O)n(CCCCn3cc(CCCCC[C@@H]4SC[C@@H]5NC(=O)N[C@@H]54)nn3)c2c1", "note": "[6.09]", "values": [
      {"measurement": "fold increase in potency against SaBPL compared to 4.01", "setting": "[1]", "result": 7, "unit": "fold"},
      {"measurement": "fold less potent against SaBPL compared to biotinol-5′-AMP 2.02", "setting": "[1]", "result": 3, "unit": "fold"},
      {"measurement": "selectivity towards SaBPL over EcBPL (E. coli BPL)", "setting": "[1]", "result": "> 1000", "unit": "fold"},
      {"measurement": "IC50", "setting": "[1]", "result": "0.53 ± 0.01", "unit": "µM"},
      {"measurement": "selectivity towards SaBPL over HsBPL (human BPL)", "setting": "[1]", "result": "> 1000", "unit": "fold"},
      {"measurement": "Ki", "setting": "[1]; read-out: Ki SaBPL", "result": "0.09 ± 0.02", "unit": "µM"},
      {"measurement": "Ki", "setting": "[2]; [5]", "result": "> 30", "unit": "µM"},
      {"measurement": "Ki", "setting": "[3]", "result": "> 30", "unit": "µM"},
      {"measurement": "prevention of cell growth of S. aureus ATCC 49775", "setting": "S. aureus ATCC 49775", "result": 80, "unit": "%"},
      {"measurement": "inhibition of growth of Enterococcus faecalis", "setting": "Enterococcus faecalis", "result": "no inhibition of growth"},
      {"measurement": "inhibition of growth of Enterococcus faecium", "setting": "Enterococcus faecium", "result": "no inhibition of growth"}
    ]},
    {"compound": "Cc1ccc2oc(=O)n(CCCCc3noc(CCCCC[C@@H]4SC[C@@H]5NC(=O)N[C@@H]54)n3)c2c1", "note": "[compound 2, 3-[4-[5-[5-[(3aS,4S,6aR)-2-oxo-1,3,3a,4,6,6a-hexahydrothieno[3,4-d]imidazol-4-yl]pentyl]-1,2,4-oxadiazol-3-yl]butyl]-5-methyl-1,3-benzoxazol-2-one]", "values": [
      {"measurement": "Ki", "setting": "[1]", "result": "2.2 ± 0.8", "unit": "µM"},
      {"measurement": "Ki", "setting": "M. tuberculosis BPL", "result": "290 ± 16", "unit": "µM"}
    ]},
    {"compound": "biotin alkyne [3.12]", "values": [
      {"measurement": "Ki", "setting": "[1]; read-out: Ki SaBPL", "result": "0.33 ± 0.05", "unit": "µM"}
    ]}
  ]
}
